System: nitrification
Test: Example 5: soil incubation in bottles with ammonium sulfate, DMPSA, DCD or mixtures, 5 to 15° C., 0 up to 56 days; recovery NH4 (RE/RC), net recovery NH4 (NE/NC), inhibition of NO3 formation (IE/IC, Böhland; Colby)
Design: unit not given here
Method: 100 g soil is filled into 500 ml plastic bottles (e.g. soil sampled from the field) and is moistened to 50% water holding capacity. The soil is incubated at 20° C. for two weeks to activate the microbial biomass. 1 ml test solution, containing the compositions and mixtures of the invention in the appropriate concentration, or DMSO and 5 to 10 mg nitrogen in the form of ammoniumsulfate-N is added to the soil and everything mixed well. Bottles are capped but loosely to allow air exchange. The bottles are then incubated at 5 to 15° C. for 0 up to 56 days.
For analysis, 300 ml of a 1% K2SO4-solution is added to the bottle containing the soil and shaken for 2 hrs in a horizontal shaker at 150 rpm. Then the whole solution is filtered through a Macherey-Nagel Filter MN 807′/. Ammonium and nitrate content is then analyzed in the filtrate in an autoanalyzer at 550 nm (Merck, AA11).
The Böhland equation is described in Böhland, H., et al. (1973) “Mittel zur Hemmung bzw. Regelung der Nitrifikation von Ammoniumstickstoff in Kulturböden”. DDR-Wirtschaftspatent (Economic patent of the German Democratic Republic) C 05c 169 727. Cited by: Peschke, H. (1985) “Zur Bewertung der inhibierenden Wirkung von Nitrifiziden im Boden”, Zbl. Mikrobiol. 140, pp. 583-588.

2-(3,4-dimethyl-1H-pyrazol-1-yl)succinic acid and/or 2-(4,5-dimethyl-1H-pyrazol-1-yl)succinic acid [DMPSA]
IE (inhibition of NO3 formation, Böhland) (IT10° C., DAT28, % a.i. DMPSA 0.30, DCD 0.05): 51
IE (inhibition of NO3 formation, Böhland) (IT10° C., DAT28, % a.i. DMPSA 0.50, DCD 0.08): 46
IE inhibition of NO3 formation (IT10° C., DAT28, % a.i.: DMPSA 0.50, DCD 0.0125, DMPSA + DCD 0.50 + 0.0125 (40:1)): 62
IE inhibition of NO3 formation (IT10° C., DAT28, % a.i.: DMPSA 0.50, DCD 0.0143, DMPSA + DCD 0.50 + 0.0143 (35:1)): 62
IE inhibition of NO3 formation (IT10° C., DAT28, % a.i.: DMPSA 0.50, DCD 0.0167, DMPSA + DCD 0.50 + 0.0167 (30:1)): 62
IE inhibition of NO3 formation (IT10° C., DAT30, % a.i.: DMPSA 0.5, DCD 1, DMPSA + DCD 0.5 + 1 (1:2)): 79
IE inhibition of NO3 formation (IT10° C., DAT30, % a.i.: DMPSA 0.5, DCD 3, DMPSA + DCD 0.5 + 3 (1:6)): 79
IE (inhibition of NO3 formation, Böhland) (IT10° C., DAT42, % a.i. DMPSA 0.25, DCD 1): 66
IE (inhibition of NO3 formation, Böhland) (IT10° C., DAT42, % a.i. DMPSA 0.25, DCD 3): 66
IE (inhibition of NO3 formation, Böhland) (IT10° C., DAT42, % a.i. DMPSA 0.30, DCD 0.05): 46
IE (inhibition of NO3 formation, Böhland) (IT10° C., DAT42, % a.i. DMPSA 0.50, DCD 0.08): 52
IE (inhibition of NO3 formation, Böhland) (IT10° C., DAT56, % a.i. DMPSA 0.25, DCD 1): 65
IE (inhibition of NO3 formation, Böhland) (IT10° C., DAT56, % a.i. DMPSA 0.25, DCD 3): 65
IE (inhibition of NO3 formation, Böhland) (IT10° C., DAT56, % a.i. DMPSA 0.30, DCD 0.05): 47
IE (inhibition of NO3 formation, Böhland) (IT10° C., DAT56, % a.i. DMPSA 0.50, DCD 0.08): 47
IE inhibition of NO3 formation (IT15° C., DAT10, % a.i.: DMPSA 0.5, DCD 1, DMPSA + DCD 0.5 + 1 (1:2)): 50
IE inhibition of NO3 formation (IT15° C., DAT10, % a.i.: DMPSA 0.5, DCD 3, DMPSA + DCD 0.5 + 3 (1:6)): 50
IE inhibition of NO3 formation (IT15° C., DAT20, % a.i.: DMPSA 0.5, DCD 1, DMPSA + DCD 0.5 + 1 (1:2)): 74
IE inhibition of NO3 formation (IT15° C., DAT20, % a.i.: DMPSA 0.5, DCD 3, DMPSA + DCD 0.5 + 3 (1:6)): 74
IE (inhibition of NO3 formation, Böhland) (IT15° C., DAT28, % a.i. DMPSA 0.25, DCD 1): 70
IE (inhibition of NO3 formation, Böhland) (IT15° C., DAT28, % a.i. DMPSA 0.25, DCD 3): 70
IE inhibition of NO3 formation (IT15° C., DAT28, % a.i.: DMPSA 0.30, DCD 0.05, DMPSA + DCD 0.30 + 0.05 (6:1)): 39
IE inhibition of NO3 formation (IT15° C., DAT28, % a.i.: DMPSA 0.50, DCD 0.0125, DMPSA + DCD 0.50 + 0.0125 (40:1)): 44
IE inhibition of NO3 formation (IT15° C., DAT28, % a.i.: DMPSA 0.50, DCD 0.0143, DMPSA + DCD 0.50 + 0.0143 (35:1)): 44
IE inhibition of NO3 formation (IT15° C., DAT28, % a.i.: DMPSA 0.50, DCD 0.0167, DMPSA + DCD 0.50 + 0.0167 (30:1)): 44
IE inhibition of NO3 formation (IT15° C., DAT28, % a.i.: DMPSA 0.50, DCD 0.08, DMPSA + DCD 0.50 + 0.08 (6.25:1)): 40
IE inhibition of NO3 formation (IT15° C., DAT30, % a.i.: DMPSA 0.5, DCD 1, DMPSA + DCD 0.5 + 1 (1:2)): 74
IE inhibition of NO3 formation (IT15° C., DAT30, % a.i.: DMPSA 0.5, DCD 3, DMPSA + DCD 0.5 + 3 (1:6)): 74
IE (inhibition of NO3 formation, Böhland) (IT15° C., DAT42, % a.i. DMPSA 0.25, DCD 1): 55
IE (inhibition of NO3 formation, Böhland) (IT15° C., DAT42, % a.i. DMPSA 0.25, DCD 3): 55
IE inhibition of NO3 formation (IT15° C., DAT42, % a.i.: DMPSA 0.30, DCD 0.05, DMPSA + DCD 0.30 + 0.05 (6:1)): 29
IE inhibition of NO3 formation (IT15° C., DAT42, % a.i.: DMPSA 0.50, DCD 0.08, DMPSA + DCD 0.50 + 0.08 (6.25:1)): 44
IE (inhibition of NO3 formation, Böhland) (IT15° C., DAT56, % a.i. DMPSA 0.25, DCD 1): 35
IE (inhibition of NO3 formation, Böhland) (IT15° C., DAT56, % a.i. DMPSA 0.25, DCD 3): 35
IE inhibition of NO3 formation (IT15° C., DAT56, % a.i.: DMPSA 0.30, DCD 0.05, DMPSA + DCD 0.30 + 0.05 (6:1)): 27
IE inhibition of NO3 formation (IT15° C., DAT56, % a.i.: DMPSA 0.50, DCD 0.08, DMPSA + DCD 0.50 + 0.08 (6.25:1)): 27

Reference: patent publication US20210371351A1, “MIXTURES COMPRISING AT LEAST TWO DIFFERENT NITRIFICATION INHIBITORS SELECTED FROM 2-(3,4-DIMETHYL-1H-PYRAZOL-1-YL)SUCCINIC ACID (DMPSA), 3,4-DIMETHYL PYRAZOLIUM GLYCOLATE (DMPG) AND OTHER COMPOUNDS” (BASF SE, priority 2017, published 2021)
